{
  "source": "patent US5340816A",
  "about": "“Hydroxymethyl(methylenecyclopentyl) purines and pyrimidines” (E. R. Squibb & Sons, Inc., priority 1993, dated 1994)",
  "key": {"[1]": {"system": "HCMV", "assay": "HCMV antiviral plaque reduction assay in WI-38 cell culture monolayers", "type": "cell-based, human cytomegalovirus, strain AD 169", "details": "Human betaherpesvirus 5, WI-38 cells, 5-7 days at 37° C., read-out: ID50 for HCMV", "experimental": "(§1) Assays were performed in cell culture systems to determine the concentrations of compounds that are effective in preventing several kinds of viral infections.\n(§2) HSV-1 (herpes simplex virus type 1, strain Schooler), HSV-2 (herpes simplex virus type 2, strain 186), VZV (varicella zoster virus, strain ELLEN), HCMV (human cytomegalovirus, strain AD 169 HIV (human immununodeficiency virus, strain HTLV-IIIB).\n(§3) HSV-1, HSV-2, HCMV and VZV antiviral assays: Virus was adsorbed to WI-38 cell culture monolayers in 6 well culture plates (Costar, Cambridge, Mass.) for 1 hour prior to addition of maintenance medium containing duplicate dilutions of the test compound. Inhibition of plaque development was evaluated on fixed and stained monolayers after 4 days incubation at 37° C. for HSV-1 and HSV-2, and after 5-7 days incubation at 37° C. for HCMV and VZV. ID50 values were determined from the drug concentration which conferred at least a 50% plaque reduction compared to virus controls."}, "[2]": {"system": "HSV-2", "assay": "HSV-2 antiviral plaque reduction assay in WI-38 cell culture monolayers", "type": "cell-based, herpes simplex virus type 2, strain 186", "details": "Human alphaherpesvirus 2, 96 h, WI-38 cells, 4 days at 37° C., read-out: ID50 for HSV-2", "experimental": "as §1, §2, §3"}, "[3]": {"system": "HSV-1", "assay": "HSV-1 antiviral plaque reduction assay in WI-38 cell culture monolayers", "type": "cell-based, herpes simplex virus type 1, strain Schooler", "details": "Human alphaherpesvirus 1, 96 h, WI-38 cells, 4 days at 37° C., read-out: ID50 for HSV-1", "experimental": "as §1, §2, §3"}, "[4]": {"system": "VZV", "assay": "VZV antiviral plaque reduction assay in WI-38 cell culture monolayers", "type": "cell-based, varicella zoster virus, strain ELLEN", "details": "Human alphaherpesvirus 3, WI-38 cells, 5-7 days at 37° C., read-out: ID50 for VZV", "experimental": "as §1, §2, §3"}, "[5]": {"assay": "Reduction of cell viability in uninfected MT-2 cells (XTT-PMS)", "type": "cell-based", "details": "human, 7 days", "experimental": "HIV antiviral assay: Suspensions of MT-2 cells (S. Harada, et al., Science, 229, 563 (1985)) were infected at a multiplicity of infection of 0.03 TLID50 /cell with HIV (strain HTLV-III B). After adsorption for 1-2 hours at 37° C., infected cells were diluted in growth medium (RPMI 1640 containing the antibiotics penicillin plus streptomycin and 10% fetal calf serum) to give a final cell concentration of 1×10^4 viable cells/culture well in the presence of serial dilutions of the test compound, starting at 100 μg/ml. Triplicate samples at each drug concentration were used. Cultures of uninfected MT-2 cells were similarly prepared and incubated with serial dilutions of test compound in duplicate. All assays were performed in 96 well disposable cell culture plates. Untreated (infected and uninfected) cells were included as controls. […] Following incubation, viable cell numbers were counted in each well using a colorimetric assay following incubation of cells with XTT-PMS solution (XTT tetrazolium reagent plus phenazine methosulfate PMS).\n(§4) Percent reduction of viral cytopathic effect (CPE) in drug treated compared to untreated virus infected cells, and percent reduction of cell viability in drug treated uninfected cells compared to untreated controls were calculated and plotted versus the drug concentrations tested. […]"}, "[6]": {"system": "HIV", "assay": "HIV antiviral assay (reduction of viral cytopathic effect in MT-2 cells, XTT-PMS)", "type": "cell-based, human immununodeficiency virus, strain HTLV-IIIB", "details": "Human immunodeficiency virus 1, MT2, 168 h, 7 days, read-out: reduction in viral CPE (HIV)", "experimental": "as §1, §2\nHIV antiviral assay: Suspensions of MT-2 cells (S. Harada, et al., Science, 229, 563 (1985)) were infected at a multiplicity of infection of 0.03 TLID50 /cell with HIV (strain HTLV-III B). […] Following incubation, viable cell numbers were counted in each well using a colorimetric assay following incubation of cells with XTT-PMS solution (XTT tetrazolium reagent plus phenazine methosulfate PMS).\nas §4"}},
  "data": [
    {"smiles": "C=C1[C@H](CO)[C@@H](O)C[C@@H]1n1ccc(N)nc1=O", "values": [
      {"measurement": "IC50", "setting": "[1]", "result": "2.1 to 4.2", "unit": "µM"},
      {"measurement": "IC50", "setting": "[2]", "result": "2.1 to 4.2", "unit": "µM"},
      {"measurement": "IC50", "setting": "[3]", "result": "4.2 to 8.4", "unit": "µM"},
      {"measurement": "IC50", "setting": "[4]", "result": "4.2 to 42", "unit": "µM"}
    ]},
    {"smiles": "C=C1[C@H](CO)[C@@H](O)C[C@@H]1n1cc(/C=C/I)c(=O)[nH]c1=O", "values": [
      {"measurement": "IC50", "setting": "[1]", "result": "> 260", "unit": "µM"},
      {"measurement": "IC50", "setting": "[2]", "result": "13 to 26", "unit": "µM"},
      {"measurement": "IC50", "setting": "[3]", "result": "0.5 to 1.3", "unit": "µM"},
      {"measurement": "IC50", "setting": "[4]", "result": "0.05 to 0.14", "unit": "µM"}
    ]},
    {"smiles": "C=C1[C@H](CO)[C@@H](O)C[C@@H]1n1cnc2c(N)ncnc21", "note": "[[1R-(1α,3α,5β)]-3-(6-Amino-9H-purin-9-yl)-5-hydroxy-2-methylenecyclopentanemethanol]", "values": [
      {"measurement": "IC50", "setting": "[1]", "result": "> 38", "unit": "µM"},
      {"measurement": "cytotoxicity at 168 h, 27 µM", "setting": "[5]; at 27 μM", "result": 23, "unit": "%"},
      {"measurement": "IC50", "setting": "[2]", "result": "191 to 383", "unit": "µM"},
      {"measurement": "IC50", "setting": "[3]", "result": "191 to 383", "unit": "µM"},
      {"measurement": "IC50", "setting": "[4]", "result": "> 96", "unit": "µM"},
      {"measurement": "inhibition at 27 µM", "setting": "[6]; at 27 μM", "result": 50, "unit": "%"}
    ]},
    {"smiles": "C=C1[C@H](CO)[C@@H](O)C[C@@H]1n1cc(I)c(=O)[nH]c1=O", "note": "[[1S-(1α,3α,4β)]-1-[4-Hydroxy-3-(hydroxymethyl)-2-methylenecyclopentyl]-5-iodo-2,4(1H,3H)pyrimidinedione]", "values": [
      {"measurement": "IC50", "setting": "[1]", "result": "68 to 137", "unit": "µM"},
      {"measurement": "IC50", "setting": "[2]", "result": "> 275", "unit": "µM"},
      {"measurement": "IC50", "setting": "[3]", "result": "6 to 14", "unit": "µM"},
      {"measurement": "IC50", "setting": "[4]", "result": "68 to 137", "unit": "µM"}
    ]},
    {"smiles": "C=C1[C@H](CO)[C@@H](O)C[C@@H]1n1cc(C)c(=O)[nH]c1=O", "note": "[[1S-(1α,3α,4β)]-1-[4-Hydroxy-3-(hydroxymethyl)-2-methylenecyclopentyl]-5-methyl-2,4(1H,3H)-pyrimidinedione]", "values": [
      {"measurement": "IC50", "setting": "[1]", "result": "≥ 396", "unit": "µM"},
      {"measurement": "IC50", "setting": "[2]", "result": "40 to 100", "unit": "µM"},
      {"measurement": "IC50", "setting": "[3]", "result": "8 to 20", "unit": "µM"},
      {"measurement": "IC50", "setting": "[4]", "result": "40 to 400", "unit": "µM"}
    ]},
    {"smiles": "C=C1[C@H](CO)[C@@H](O)C[C@@H]1n1cnc2c(=O)[nH]c(N)nc21", "note": "[[1S-(1α,3α,4β)]-2-Amino-1,9-dihydro-9-[4-hydroxy-3-(hydroxymethyl)-2-methylenecyclopentyl]-6H-purin-6-one]", "values": [
      {"measurement": "IC50", "setting": "[1]", "result": 90, "unit": "µM"},
      {"measurement": "cytotoxicity at 168 h, 12 µM", "setting": "[5]; at 12 μM", "result": 4, "unit": "%"},
      {"measurement": "IC50", "setting": "[2]", "result": "7.2 to 18", "unit": "µM"},
      {"measurement": "IC50", "setting": "[3]", "result": 3.6, "unit": "µM"},
      {"measurement": "IC50", "setting": "[4]", "result": "18 to 36", "unit": "µM"},
      {"measurement": "inhibition at 12 µM", "setting": "[6]; at 12 μM", "result": 41, "unit": "%"}
    ]},
    {"smiles": "C=C1[C@H](CO)[C@@H](O)C[C@@H]1n1cc(/C=C/Br)c(=O)[nH]c1=O", "note": "[[1S-[1α(E),3α,4β)]-5-(2-Bromoethenyl)-1-[4-hydroxy-3-(hydroxymethyl)-2-methylenecyclopentyl]-2,4(1H,3H)-pyrimidinedione]", "values": [
      {"measurement": "IC50", "setting": "[1]", "result": 291, "unit": "µM"},
      {"measurement": "IC50", "setting": "[2]", "result": "29 to 73", "unit": "µM"},
      {"measurement": "IC50", "setting": "[3]", "result": "0.6 to 1.5", "unit": "µM"},
      {"measurement": "IC50", "setting": "[4]", "result": "0.3 to 0.6", "unit": "µM"}
    ]},
    {"smiles": "C=C1[C@H](CO)[C@@H](O)C[C@@H]1n1cc(/C=C/Cl)c(=O)[nH]c1=O", "note": "[[1S-[1α(E),3α,4β]]-5-(2-Chloroethenyl)-1-[4-hydroxy-3-(hydroxymethyl)-2-methylenecyclopentyl]-2,4(1H,3H)-pyrimidinedione]", "values": [
      {"measurement": "IC50", "setting": "[2]", "result": 2, "unit": "µM"},
      {"measurement": "IC50", "setting": "[3]", "result": "0.07 to 0.16", "unit": "µM"},
      {"measurement": "IC50", "setting": "[4]", "result": 1.7, "unit": "µM"}
    ]}
  ]
}
